# Patent US20070031341A1, “Methods of delivering therapeutics to the brain” (priority 2005, published 2007)
# Key:
# [1] = pKa and protonated cationic fraction of lubeluzole; format: physicochemical
# Excerpt: Because lubeluzole has a PKa of 7.6 it is present in its protonated cationic form at pHs less than 7.6. For example, at pHs of 7.4 and 6.0, about 61% and 97% of lubeluzole is respectively present in its protonated cationic form. Therefore, the skilled artisan can expect a significant amount of lubeluzole to be present in its cationic form at relatively mild pHs and particularly at the pHs of physiologic CSF (˜7.5). Moreover, support for the transport of benzothiazole derivatives is found in the literature. Levamisole is believed to be a benzothiazole derivativethat has been transdermally transported iontophoretically in order to treat herpes simplex virus and recurrent aphthous stomatitis.
# [2] = cited from earlier work
# [3] = system: cerebellar granule cells exposed to MPP+ neurotoxin; settings: 100 μM Vitamin E; about 50% without; cited from earlier work
Compound,lubeluzole present in its protonated cationic form ([1]; pH 6.0) [%],lubeluzole present in its protonated cationic form ([1]; pH 7.4),PKa [2],in vitro viability of cerebellar granule cells exposed to MPP+ [3]
CN(c1nc2ccccc2s1)C1CCN(C[C@H](O)COc2ccc(F)c(F)c2)CC1 [lubeluzole],~97,about 61%,7.6,–
Vitamin E,–,–,–,about 85%
